# Measured values reported in patent US6946458B2, “N-thiolated beta-lactams: novel antibacterial agents for methicillin-resistant Staphylococcus aureus” (University of South Florida, priority 1999, dated 2005).
# Tests used:
# Experiment in all cases: Kirby-Bauer agar disk diffusion
# [1] = test system: Staph aureus 525; format: cell-based, Staphylococcus aureus; details: for Kirby-Bauer Disc Diffusion Test Results: Table 5
# [2] = test system: MRSA USF654; format: cell-based, Staphylococcus aureus; set-up: Kirby-Bauer Disc Diffusion Test Results: unit not given here; details: for Kirby-Bauer Disc Diffusion Test Results: Table 5, beta-lactamase producing strain; for zone of growth inhibition, average diameter: Table 3, 6-mm disks, 20 μg test compound, 24 hours
# Protocol: (§1) In this study, a selection of N-methylthio-substituted β-lactams are examined for antimicrobial activity by the Kirby-Bauer disk diffusion method on agar plates. A variety of common Gram-positive and Gram-negative bacteria are tested, including clinical isolates of methicillin-resistant Staphylococcus aureus (MRSA).
# (§2) Compound susceptibility measurements are obtained from agar disk diffusion experiments using 6-mm air-dried disks impregnated with 20 μg of the test compound. The values correspond to the average diameters in mm (triplicate experiments) for the zone of growth inhibition observed after 24 h. Staphylococcus aureus (ATCC 25923) and β-lactamase-producing strains of methicillin-resistant Staphylococcus aureus (labeled as MRSA USF652-659) are obtained from Lakeland Regional Medical Center, Lakeland, Fla. Staphylococcus epidermidis, Staphylococcus simulans, Staphylococcus simulans, and Microcossus luteus are clinical isolates from University of South Florida Medical Clinic. Nieserria gonnorhoeae (β-lactamase positive) is obtained from the Tampa Branch State Laboratory. PenG is penicillin G (potassium salt). Table 1 provides the zones of growth inhibition that are observed after 24 hours using the lactams of FIGS. 1A-1I (designated A-I, respectively).
# (§3) Of particular interest is the ability of these compounds to retain their effectiveness against penicillin-resistant strains of Staphylococcus aureus, a dangerous hospital-borne pathogen which is becoming difficult to treat with conventional antibiotic therapy. The lactams were screened for antibacterial activity by disk diffusion on agar plates, and the resulting zones of bacterial growth inhibition measured (see Table 3; each lactam is designated by Figure number).
# (§4) Table 3: Growth inhibition zones obtained from agar disk diffusion experiments using 6-mm air-dried disks impregnated with 20 μg of the test compound. The values correspond to the average diameters in mm for the zone of growth inhibition observed after 24 hours. Staphylococcus aureus and β-lactamase-producing strains of methicillin-resistant Staphylococcus aureus (labeled MRSA USF652-659) are obtained from a clinical testing laboratory at Lakeland Regional Medical Center, Lakeland, Fla.
# (§5) Those compounds were tested for bioactivity using the Kirby-Bauer test on agar plates.
# (§6) Biological activity is enhanced against β-lactamase producing strains of methicillin-resistant Staphylococcus aureus (MRSA). With the lactam shown in FIG. 11A serving as a lead structure, a series of other C-4 substituted derivatives (FIGS. 11B-11I) were investigated herein. Table 5 lists microbiological data for β-lactams from Kirby-Bauer Disc Diffusion Test Results (with each lactam identified by Figure number).
# (§7) Scheme I summarizes the synthesis of ester compounds 4. 4-Carboxy benzaldehyde (1) is coupled with the appropriate alcohol using DCC/DMAP, followed by reaction with p-anisidine, to give imines 2. Staudinger coupling of methoxyacetyl chloride with imine 2 gives N-aryl protected β-lactam 3. N-Dearylation of β-lactam 3 with ceric ammonium nitrate and methylthiolation with N-(methylthio)phthalimide affords N-methylthio β-lactams 4. These compounds are tested for antibacterial activity by the Kirby-Bauer method of disc diffusion on agar plates. [drawing 7]
# [3] = test system: MRSA USF659; format: cell-based, Staphylococcus aureus; set-up: Kirby-Bauer Disc Diffusion Test Results: unit not given here; details: for Kirby-Bauer Disc Diffusion Test Results: Table 5, beta-lactamase producing strain; for zone of growth inhibition, average diameter: Table 3, 6-mm disks, 20 μg test compound, 24 hours
# Protocol: as §1, §2, §3, §4, §5, §6, §7
# [4] = test system: MRSA USF657; format: cell-based, Staphylococcus aureus; set-up: Kirby-Bauer Disc Diffusion Test Results: unit not given here; details: for Kirby-Bauer Disc Diffusion Test Results: Table 5, beta-lactamase producing strain; for zone of growth inhibition, average diameter: Table 3, 6-mm disks, 20 μg test compound, 24 hours
# Protocol: as §1, §2, §3, §4, §5, §6, §7
# [5] = test system: MRSA USF652; format: cell-based, Staphylococcus aureus; set-up: Kirby-Bauer Disc Diffusion Test Results: unit not given here; details: for Kirby-Bauer Disc Diffusion Test Results: Table 5, beta-lactamase producing strain; for zone of growth inhibition, average diameter: Table 3, 6-mm disks, 20 μg test compound, 24 hours
# Protocol: as §1, §2, §3, §4, §5, §6, §7
# [6] = test system: MRSA USF656; format: cell-based, Staphylococcus aureus; set-up: Kirby-Bauer Disc Diffusion Test Results: unit not given here; details: for Kirby-Bauer Disc Diffusion Test Results: Table 5, beta-lactamase producing strain; for zone of growth inhibition, average diameter: Table 3, 6-mm disks, 20 μg test compound, 24 hours
# Protocol: as §1, §2, §3, §4, §5, §6, §7
# [7] = test system: MRSA USF653; format: cell-based, Staphylococcus aureus; set-up: Kirby-Bauer Disc Diffusion Test Results: unit not given here; details: for Kirby-Bauer Disc Diffusion Test Results: Table 5, beta-lactamase producing strain; for zone of growth inhibition, average diameter: Table 3, 6-mm disks, 20 μg test compound, 24 hours
# Protocol: as §1, §2, §3, §4, §5, §6, §7
# [8] = test system: MRSA USF658; format: cell-based, Staphylococcus aureus; set-up: Kirby-Bauer Disc Diffusion Test Results: unit not given here; details: for Kirby-Bauer Disc Diffusion Test Results: Table 5, beta-lactamase producing strain; for zone of growth inhibition, average diameter: Table 3, 6-mm disks, 20 μg test compound, 24 hours
# Protocol: as §1, §2, §3, §4, §5, §6, §7
# [9] = test system: MRSA USF655; format: cell-based, Staphylococcus aureus; set-up: Kirby-Bauer Disc Diffusion Test Results: unit not given here; details: for Kirby-Bauer Disc Diffusion Test Results: Table 5; for zone of growth inhibition, average diameter: Table 3, 6-mm disks, 20 μg test compound, 24 hours
# Protocol: as §1, §2, §3, §4, §5, §6, §7
# [10] = test system: S. saprophyticus (ATCC 3552); format: cell-based, Staphylococcus saprophyticus; details: Table 3; 6-mm disks, 20 μg test compound, 24 hours
# Protocol: as §1, §2, §3, §4
# [11] = test system: Staphylococcus aureus (ATCC 25923); format: cell-based; details: Table 3; 6-mm disks, 20 μg test compound, 24 hours
# Protocol: as §1, §2, §3, §4
# [12] = test system: Micrococcus luteus; format: cell-based; details: Table 3; 6-mm disks, 20 μg test compound, 24 hours
# Protocol: as §1, §2, §3, §4
# [13] = test system: Staphylococcus epidermidis; format: cell-based; details: Table 3; 6-mm disks, 20 μg test compound, 24 hours
# Protocol: as §1, §2, §3, §4
# [14] = test system: S. simulans (ATCC 11631); format: cell-based, Staphylococcus simulans; details: Table 3; 6-mm disks, 20 μg test compound, 24 hours
# Protocol: as §1, §2, §3, §4
smiles,measurement,setting,value
COC1C(=O)N(SC)C1c1cccc(Cl)c1 (racemic) [FIG. 11G],Kirby-Bauer Disc Diffusion Test Results,[1],24
same,Kirby-Bauer Disc Diffusion Test Results,[2],21
same,Kirby-Bauer Disc Diffusion Test Results,[3],15
same,Kirby-Bauer Disc Diffusion Test Results,[4],25
same,Kirby-Bauer Disc Diffusion Test Results,[5],26
same,Kirby-Bauer Disc Diffusion Test Results,[6],26
same,Kirby-Bauer Disc Diffusion Test Results,[7],28
same,Kirby-Bauer Disc Diffusion Test Results,[8],22
same,Kirby-Bauer Disc Diffusion Test Results,[9],23
CSN1C(=O)C(Oc2ccccc2)C1C=Cc1ccccc1 (racemic) [FIG. 3D],"zone of growth inhibition, average diameter",[10],11 mm
same,"zone of growth inhibition, average diameter",[11],15 mm
same,"zone of growth inhibition, average diameter",[12],10 mm
same,"zone of growth inhibition, average diameter",[13],10 mm
same,"zone of growth inhibition, average diameter",[2],14 mm
same,"zone of growth inhibition, average diameter",[3],12 mm
same,"zone of growth inhibition, average diameter",[4],13 mm
same,"zone of growth inhibition, average diameter",[5],14 mm
same,"zone of growth inhibition, average diameter",[6],13 mm
same,"zone of growth inhibition, average diameter",[7],16 mm
same,"zone of growth inhibition, average diameter",[8],12 mm
same,"zone of growth inhibition, average diameter",[9],15 mm
same,"zone of growth inhibition, average diameter",[14],8 mm
CSN1C(=O)C(Oc2ccccc2)C1CCc1ccccc1 (racemic) [FIG. 3G],"zone of growth inhibition, average diameter",[10],10 mm
same,"zone of growth inhibition, average diameter",[11],14 mm
same,"zone of growth inhibition, average diameter",[12],17 mm
same,"zone of growth inhibition, average diameter",[13],12 mm
same,"zone of growth inhibition, average diameter",[2],13 mm
same,"zone of growth inhibition, average diameter",[3],12 mm
same,"zone of growth inhibition, average diameter",[4],12 mm
same,"zone of growth inhibition, average diameter",[5],14 mm
same,"zone of growth inhibition, average diameter",[6],13 mm
same,"zone of growth inhibition, average diameter",[7],12 mm
same,"zone of growth inhibition, average diameter",[8],12 mm
same,"zone of growth inhibition, average diameter",[9],11 mm
same,"zone of growth inhibition, average diameter",[14],8 mm
CCSN1C(=O)C(OC)C1c1ccccc1Cl (racemic) [Ethylthio],Zones of Inhibition,"[1]; Table 4, 20 μg disk loading",26 mm
same,Zones of Inhibition,"[2]; Table 4, 20 μg disk loading",27 mm
same,Zones of Inhibition,"[3]; Table 4, 20 μg disk loading",30 mm
same,Zones of Inhibition,"[4]; Table 4, 20 μg disk loading",29 mm
same,Zones of Inhibition,"[5]; Table 4, 20 μg disk loading",33 mm
same,Zones of Inhibition,"[6]; Table 4, 20 μg disk loading",29 mm
same,Zones of Inhibition,"[7]; Table 4, 20 μg disk loading",33 mm
same,Zones of Inhibition,"[8]; Table 4, 20 μg disk loading",30 mm
same,Zones of Inhibition,"[9]; Table 4, 20 μg disk loading",28 mm
COC1C(=O)N(SC)C1c1ccc(C#N)cc1 (racemic) [FIG. 11D],Kirby-Bauer Disc Diffusion Test Results,[1],14
same,Kirby-Bauer Disc Diffusion Test Results,[2],0
same,Kirby-Bauer Disc Diffusion Test Results,[3],12
same,Kirby-Bauer Disc Diffusion Test Results,[4],10
same,Kirby-Bauer Disc Diffusion Test Results,[5],14
same,Kirby-Bauer Disc Diffusion Test Results,[6],13
same,Kirby-Bauer Disc Diffusion Test Results,[7],16
same,Kirby-Bauer Disc Diffusion Test Results,[8],12
same,Kirby-Bauer Disc Diffusion Test Results,[9],12
CSN1C(=O)C(OC(C)=O)C1CCc1ccccc1 (racemic) [FIG. 3F],"zone of growth inhibition, average diameter",[10],13 mm
same,"zone of growth inhibition, average diameter",[11],17 mm
same,"zone of growth inhibition, average diameter",[12],23 mm
same,"zone of growth inhibition, average diameter",[13],18 mm
same,"zone of growth inhibition, average diameter",[2],17 mm
same,"zone of growth inhibition, average diameter",[3],16 mm
same,"zone of growth inhibition, average diameter",[4],17 mm
same,"zone of growth inhibition, average diameter",[5],17 mm
same,"zone of growth inhibition, average diameter",[6],18 mm
same,"zone of growth inhibition, average diameter",[7],18 mm
same,"zone of growth inhibition, average diameter",[8],15 mm
same,"zone of growth inhibition, average diameter",[9],15 mm
same,"zone of growth inhibition, average diameter",[14],11 mm
